Data reported in article PMC4220862 (Inorganic Chemistry, 2014).

Experiments:
[1] = target: T1, amyloid β peptide (Aβ40 fibrils) (Homo sapiens, UniProt P05067); assay: direct fluorescence titration of Aβ[…] fibrils, one-site fit; type: binding
[2] = target: T1, amyloid β peptide (Aβ40 fibrils); assay: ThT fluorescence competition assay with Aβ[…] fibrils; type: binding

T1 sequence (P05067 672-711): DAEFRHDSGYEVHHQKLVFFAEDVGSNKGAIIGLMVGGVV

Row | Structure (SMILES) | Kd [1] [µM] | Ki [2] [µM]
1 | CCN(CC)c1ccc(-c2nc3ccccc3s2)c(O)c1 [L1, 2-[2-hydroxy-4-(diethylamino)phenyl]benzothiazole] | 4.7 ± 0.3 | 
2 | COc1cccc(-c2nc3ccccc3s2)c1O [L2, 2-(2-hydroxy-3-methoxyphenyl)benzothiazole] |  | 0.015 ± 0.01
